Experimental data published in paper PMC9180926, “Discovery of Novel 3-Hydroxyquinazoline-2,4(1H,3H)-Dione Derivatives: A Series of Metal Ion Chelators with Potent Anti-HCV Activities” (International Journal of Molecular Sciences, 2022).

Columns and labels:
[1] = test system: HCV 1b replicon cells (Huh-7.5.1); experiment: Anti-HCV assay, HCV 1b replicon cells with luciferase reporter; type: cell-based, hepatitis C virus (HCV) subtype 1b; conditions: HCV 1b replicon cells; for EC50: mean ± SD; for inhibition at 10 µM / inhibition at 25 µM: Huh-7.5.1, 72 h, 72 h; for inhibition at 10 µM: inhibitory rate at 10 μM, read-out: HCV Inhibition 10 μM; for inhibition at 25 µM: inhibitory rate at 25 μM, read-out: HCV Inhibition 25 μM
Method: (§1) The HCV replicons were validated as convenient and effective models for testing the anti-HCV activity. Since HCV subtype 1b is one of the major subtypes worldwide, especially in China, the replicon model from the Huh-7.5.1 cell line integrating HCV 1b genome encoding the nonstructural proteins was chosen to evaluate the anti-HCV activities of 3-hydroxyquinazoline-2,4(1H,3H)-diones. The inhibitory rates of the compounds on HCV replicon cells were determined at concentrations of 25 μM and 10 μM, respectively. The broad-spectrum antiviral drug ribavirin (RBV) and the NS5B nucleoside inhibitor 2′-C-methyladenosine (2CMA) were selected as positive controls. The cytotoxicity of these compounds on replicon cells was determined using the cell counting kit-8 (CCK-8) assay.
HCV 1b replicon cells (Huh-7.5.1) containing luciferase reporter gene were kindly provided by Prof. Zhenghong Yuan (Key Laboratory of Medical Molecular Virology, Fudan University, Shanghai, China). The replicon cells were plated at 1.5 × 10^4 cells per well in a 48-well plate (Corning Inc., New York, NY, USA) at 5% CO2/37 °C. The culture medium was Dulbecco’s Modified Eagle Medium (DMEM, pH 7.3, Shanghai XP Biomed Ltd., Shanghai, China) containing 10% fetal bovine serum (Shanghai XP Biomed Ltd., Shanghai, China), 10^5 U/L penicillin, 0.1 g/L streptomycin, and 0.5 μg/mL blasticidin. After 12 h, the culture medium in each well was replaced with 300 μL of pre-prepared fresh culture medium containing test compound (dissolved in DMSO with specific concentration) or blank DMSO. The final concentration of DMSO in the culture medium in the plate was 0.1%. Each group was tested at least twice in parallel. Ribavirin and 2CMA were used as the positive controls. After incubating the drug-added plate at 5% CO2/37 °C for 72 h, the medium was removed, and each well was washed with 300 μL of phosphate buffer solution (PBS, Shanghai XP Biomed Ltd., Shanghai, China). The cells in each well were then lysed with 50 μL of 1× lysis buffer (E2820, Promega, Madison, WI, USA). Subsequently, 50 μL of 1× luciferase assay substrate (E2820, Promega, Madison, WI, USA) was mixed with 20 μL of the harvested cell lysates.
The inhibitory rates under at least six different concentration gradients were imported into GraphPad Prism 7.0 software to calculate the anti-HCV EC50 values of the compounds using the nonlinear fitting method.

[2] = test system: HCV 1b replicon cells (Huh-7.5.1); experiment: as above; type: cell-based, hepatitis C virus (HCV) subtype 1b; conditions: Hepatitis C virus, Huh-7.5.1, 72 h, inhibitory rate at 5 μM
[3] = Cytotoxicity assay (CCK-8) on replicon cells; type: cell-based; conditions: human, HCV 1b replicon cells (Huh-7.5.1); 50% cytotoxic concentration; CCK-8, HCV 1b replicon cells, 72 h
Method: as §1
The HCV 1b replicon cells were incubated and treated with test compounds or blank DMSO in a 48-well plate using the same materials and methods as described in the experimental procedure of anti-HCV assay. The final concentration of DMSO in each well was 0.1%. After 72 h of drug treatment, the culture medium in the well plate was removed, and cells in each well were washed with 300 μL of PBS. A total of 300 μL of pre-prepared fresh culture medium containing 30 μL CCK-8 reagent (Donjindo, Kumamoto, Japan) was added to each well, and the plate was incubated at 5% CO2/37 °C for 2 h. The OD (optical density) value of each well at 450 nm was measured using a multi-function microplate reader (SpectraMax M5, Molecular Devices, San Jose, CA, USA). The death ratio of each well was calculated using the following equation, in which ODcompound or ODblank represents the measured OD value of the compound group or the blank control (DMSO), respectively:death ratio = (1−ODcompound/ODblank) × 100%(2)
The cell death data under at least six different concentration gradients were imported into GraphPad Prism 7.0.0 software (GraphPad Software Inc., San Diego, CA, USA), and the CC50 (50% cytotoxic concentration) values were calculated using the nonlinear fitting method.

[4] = Hepatitis C virus, Huh-7.5.1, 50% effective concentration

SMILES: O=c1[nH]c2cc(Br)ccc2c(=O)n1O [compound 19, 7-Bromo-3-hydroxyquinazoline-2,4(1H,3H)-dione]
- EC50 [1, 4]: 19 ± 1.8 µM
- inhibition at 10 µM ([1]; Hepatitis C virus): 41.1%
- inhibition at 25 µM ([1]; Hepatitis C virus): 72%
- inhibition at 5 µM [2]: 23.5%
- CC50 at 72 h [3]: 37.6 ± 2.6 µM

SMILES: O=c1[nH]c2ccc(-c3ccc(F)cc3)cc2c(=O)n1O [21b, 6-(4-Fluorophenyl)-3-hydroxyquinazoline-2,4(1H,3H)-dione]
- EC50 [1, 4]: 6.1 ± 0.1 µM
- inhibition at 10 µM ([1]; Hepatitis C virus): 79.7%
- inhibition at 5 µM [2]: 47.7%
- CC50 at 72 h [3]: 8 ± 2.2 µM

SMILES: O=C(Cn1c(=O)n(O)c(=O)c2ccc(-c3ccco3)cc21)Nc1ccccc1Cl [23j, N-(2-Chlorophenyl)-2-(7-(furan-2-yl)-3-hydroxy-2,4-dioxo-3,4-dihydroquinazolin-1(2H)-yl)acetamide]
- EC50 [1, 4]: 5.2 ± 1.9 µM
- inhibition at 10 µM ([1]; Hepatitis C virus): 47.8%
- inhibition at 25 µM ([1]; Hepatitis C virus): 80%
- CC50 at 72 h [3]: 12.2 ± 3.3 µM

SMILES: Nc1cccc(-c2ccc3c(=O)n(O)c(=O)[nH]c3c2)c1 [21j, 7-(3-Aminophenyl)-3-hydroxyquinazoline-2,4(1H,3H)-dione]
- EC50 [1, 4]: 7.3 ± 1.3 µM
- inhibition at 10 µM ([1]; Hepatitis C virus): 51%
- inhibition at 5 µM [2]: 16.1%
- CC50 at 72 h [3]: 13 ± 0.8 µM

SMILES: Cn1c(=O)n(O)c(=O)c2ccc(-c3ccccc3)cc21 [23b, 3-Hydroxy-1-methyl-7-phenylquinazoline-2,4(1H,3H)-dione]
- EC50 [1, 4]: 3.9 ± 1 µM
- inhibition at 10 µM ([1]; Hepatitis C virus): 79.5%
- inhibition at 5 µM [2]: 39.2%
- CC50 at 72 h [3]: 6.7 ± 0.3 µM

SMILES: CCn1c(=O)n(O)c(=O)c2ccc(-c3ccccc3)cc21 [23e, 1-Ethyl-3-hydroxy-7-phenylquinazoline-2,4(1H,3H)-dione]
- EC50 [1, 4]: 26.8 ± 2.5 µM
- inhibition at 10 µM ([1]; Hepatitis C virus): 24.6%
- inhibition at 25 µM ([1]; Hepatitis C virus): 77.5%
- CC50 at 72 h [3]: 39.5 ± 2.3 µM

SMILES: Nc1ccccc1-c1ccc2c(=O)n(O)c(=O)[nH]c2c1 [21g, 7-(2-Aminophenyl)-3-hydroxyquinazoline-2,4(1H,3H)-dione]
- EC50 [1, 4]: 8.8 ± 1.8 µM
- inhibition at 10 µM ([1]; Hepatitis C virus): 64.7%
- inhibition at 5 µM [2]: 24.7%
- CC50 at 72 h [3]: 16.2 ± 0.7 µM

SMILES: O=C(Cn1c(=O)n(O)c(=O)c2ccccc21)c1ccccc1 [10e, 3-Hydroxy-1-(2-oxo-2-phenylethyl)quinazoline-2,4(1H,3H)-dione]
- EC50 [1, 4]: 11.3 ± 3 µM
- inhibition at 10 µM ([1]; Hepatitis C virus): 46.1%
- inhibition at 25 µM ([1]; Hepatitis C virus): 68%
- CC50 at 72 h [3]: 13.1 ± 1.7 µM

SMILES: O=c1[nH]c2cc(-c3ccc(F)cc3)ccc2c(=O)n1O [21f, 7-(4-Fluorophenyl)-3-hydroxyquinazoline-2,4(1H,3H)-dione]
- EC50 [1, 4]: 3.1 ± 0.1 µM
- inhibition at 10 µM ([1]; Hepatitis C virus): 78.8%
- inhibition at 5 µM [2]: 73.4%
- CC50 at 72 h [3]: 4.1 ± 0.6 µM

SMILES: COc1ccc(-c2ccc3c(=O)n(O)c(=O)[nH]c3c2)cc1 [21i, 3-Hydroxy-7-(4-methoxyphenyl)quinazoline-2,4(1H,3H)-dione]
- EC50 [1, 4]: 3.4 ± 0.1 µM
- inhibition at 10 µM ([1]; Hepatitis C virus): 64.7%
- CC50 at 72 h [3]: 5.6 ± 0.5 µM

SMILES: O=c1[nH]c2ccc(-c3cccc([N+](=O)[O-])c3)cc2c(=O)n1O [21d, 3-Hydroxy-6-(3-nitrophenyl)quinazoline-2,4(1H,3H)-dione]
- EC50 [1, 4]: 4.8 ± 0.8 µM
- inhibition at 10 µM ([1]; Hepatitis C virus): 78.5%
- inhibition at 5 µM [2]: 71.1%
- CC50 at 72 h [3]: 6.6 ± 1.5 µM

SMILES: O=c1[nH]c2cc(-c3ccco3)ccc2c(=O)n1O [21s, 7-(Furan-2-yl)-3-hydroxyquinazoline-2,4(1H,3H)-dione]
- EC50 [1, 4]: 4 ± 0.5 µM
- inhibition at 10 µM ([1]; Hepatitis C virus): 72.6%
- inhibition at 5 µM [2]: 56.2%
- CC50 at 72 h [3]: 16.3 ± 0.6 µM

SMILES: O=c1[nH]c2cc(-c3ccc(F)c(Cl)c3)ccc2c(=O)n1O [21l, 7-(3-Chloro-4-fluorophenyl)-3-hydroxyquinazoline-2,4(1H,3H)-dione]
- EC50 [1, 4]: 7.9 ± 1 µM
- inhibition at 10 µM ([1]; Hepatitis C virus): 49.7%
- inhibition at 5 µM [2]: 25.9%
- CC50 at 72 h [3]: 40.7 ± 3.9 µM

SMILES: Cn1c(=O)n(O)c(=O)c2ccc(-c3ccc(F)cc3)cc21 [23c, 7-(4-Fluorophenyl)-3-hydroxy-1-methylquinazoline-2,4(1H,3H)-dione]
- EC50 [1, 4]: 4.6 ± 0.5 µM
- inhibition at 10 µM ([1]; Hepatitis C virus): 79.1%
- inhibition at 5 µM [2]: 40.6%
- CC50 at 72 h [3]: 8.1 ± 0.2 µM

SMILES: O=C(Cn1c(=O)n(O)c(=O)c2ccccc21)Nc1ccc(C(F)(F)F)cc1 [10p, 2-(3-Hydroxy-2,4-dioxo-3,4-dihydroquinazolin-1(2H)-yl)-N-(4-(trifluoromethyl)phenyl)acetamide]
- EC50 ([1]; 50% effective concentration): 8.1 ± 0.1 µM
- EC50 [1, 4]: < 10 µM
- inhibition at 10 µM ([1]; Hepatitis C virus): 41.4%
- inhibition at 25 µM ([1]; Hepatitis C virus): 64.9%
- CC50 at 72 h [3]: 15.3 ± 0.7 µM

SMILES: O=c1[nH]c2c(-c3ccccc3)cccc2c(=O)n1O [21u, 3-Hydroxy-8-phenylquinazoline-2,4(1H,3H)-dione]
- inhibition at 10 µM ([1]; Hepatitis C virus): 27.5%
- inhibition at 25 µM ([1]; Hepatitis C virus): 40.9%
- inhibition at 5 µM [2]: 1.8%

SMILES: COc1ccc(-c2ccc3c(=O)n(O)c(=O)n(C)c3c2)cc1 [23d, 3-Hydroxy-7-(4-methoxyphenyl)-1-methylquinazoline-2,4(1H,3H)-dione]
- EC50 [1, 4]: 3.3 ± 0.2 µM
- inhibition at 10 µM ([1]; Hepatitis C virus): 73.3%
- CC50 at 72 h [3]: 9.3 ± 0.4 µM

SMILES: O=c1[nH]c2cc(-c3cccnc3)ccc2c(=O)n1O [21r, 3-Hydroxy-7-(pyridin-3-yl)quinazoline-2,4(1H,3H)-dione]
- inhibition at 10 µM ([1]; Hepatitis C virus): 26.9%
- inhibition at 25 µM ([1]; Hepatitis C virus): 65.4%
- inhibition at 5 µM [2]: -5.5%

SMILES: COc1ccc(-c2ccc3[nH]c(=O)n(O)c(=O)c3c2)cc1 [21c, 3-Hydroxy-6-(4-methoxyphenyl)quinazoline-2,4(1H,3H)-dione]
- EC50 [1, 4]: 7.2 ± 0.8 µM
- inhibition at 10 µM ([1]; Hepatitis C virus): 48.2%
- inhibition at 5 µM [2]: 11.1%
- CC50 at 72 h [3]: 14.8 ± 5.3 µM

SMILES: COc1ccc(-c2ccc3c(=O)n(O)c(=O)[nH]c3c2)cc1F [21o, 7-(3-Fluoro-4-methoxyphenyl)-3-hydroxyquinazoline-2,4(1H,3H)-dione]
- EC50 [1, 4]: 3.9 ± 2.2 µM
- inhibition at 10 µM ([1]; Hepatitis C virus): 71.3%
- CC50 at 72 h [3]: 4.3 ± 0.4 µM

SMILES: O=c1[nH]c2ccc(-c3ccccc3)cc2c(=O)n1O [21a, 3-Hydroxy-6-phenylquinazoline-2,4(1H,3H)-dione]
- EC50 [1, 4]: 4.3 ± 0.7 µM
- inhibition at 10 µM ([1]; Hepatitis C virus): 65.4%
- inhibition at 5 µM [2]: 35.6%
- CC50 at 72 h [3]: 5.5 ± 1 µM

SMILES: Cn1c(=O)n(O)c(=O)c2cc(-c3cccc([N+](=O)[O-])c3)ccc21 [23a, 3-Hydroxy-1-methyl-6-(3-nitrophenyl)quinazoline-2,4(1H,3H)-dione]
- EC50 [1, 4]: 2.3 ± 0.1 µM
- inhibition at 10 µM ([1]; Hepatitis C virus): 66.5%
- CC50 at 72 h [3]: 5.2 ± 0.1 µM
